In the NIST ThermoML archive (doi:10.1016/j.jct.2016.09.038):
± gives the expanded uncertainty stated by the source.

Columns and labels:
[1] = Crystal; DTA
[2] = Molar enthalpy of transition or fusion; settings: Crystal; DSC

In the case of `CC(C)(C)[C@H](O)[C@H](Cc1ccc(Cl)cc1)n1cncn1` [2S,3S-Paclobutrazol], the Normal melting temperature [1] is reported as 160.66 ± 1.1 °C and the “Molar enthalpy of transition or fusion” value [2] is reported as 37.9 ± 1.1 kJ/mol.
